Assay results reported in PubChem BioAssay (NCI).
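Values below derive from 48-hour exposures of cells grown in 96-well plates, with endpoints linearly interpolated between the two concentrations bracketing the appropriate inhibition level. TGI: concentration producing complete growth inhibition.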

Assays:
Assay in all cases: NCI anticancer screen, dose series, 48 h
786-0 renal = test system: 786-0 renal
A549 NSCLC = test system: A549 NSCLC
ACHN renal = test system: ACHN renal
BT-549 breast = test system: BT-549 breast
CAKI-1 renal = test system: CAKI-1 renal
CCRF-CEM leukemia = test system: CCRF-CEM leukemia
COLO 205 colon = test system: COLO 205 colon
DU-145 prostate = test system: DU-145 prostate
EKVX NSCLC = test system: EKVX NSCLC
HCC-2998 colon = test system: HCC-2998 colon
HCT-116 colon = test system: HCT-116 colon
HCT-15 colon = test system: HCT-15 colon
HL-60(TB) leukemia = test system: HL-60(TB) leukemia
HOP-62 NSCLC = test system: HOP-62 NSCLC
HOP-92 NSCLC = test system: HOP-92 NSCLC
HS 578T breast = test system: HS 578T breast
HT29 colon = test system: HT29 colon
IGROV1 ovarian = test system: IGROV1 ovarian
K-562 leukemia = test system: K-562 leukemia
KM12 colon = test system: KM12 colon
LOX IMVI melanoma = test system: LOX IMVI melanoma
M14 melanoma = test system: M14 melanoma
MALME-3M melanoma = test system: MALME-3M melanoma
MCF7 breast = test system: MCF7 breast
MDA-MB-231 breast = test system: MDA-MB-231 breast
MDA-MB-435 = test system: MDA-MB-435
MOLT-4 leukemia = test system: MOLT-4 leukemia
NCI-H226 lung = test system: NCI-H226 lung
NCI-H23 lung = test system: NCI-H23 lung
NCI-H460 lung = test system: NCI-H460 lung
NCI-H522 lung = test system: NCI-H522 lung
NCI/ADR-RES ovarian = test system: NCI/ADR-RES ovarian
OVCAR-3 ovarian = test system: OVCAR-3 ovarian
OVCAR-4 ovarian = test system: OVCAR-4 ovarian
OVCAR-5 ovarian = test system: OVCAR-5 ovarian
OVCAR-8 ovarian = test system: OVCAR-8 ovarian
PC-3 prostate = test system: PC-3 prostate
RPMI-8226 leukemia = test system: RPMI-8226 leukemia
RXF 393 renal = test system: RXF 393 renal
SF-268 CNS = test system: SF-268 CNS
SF-295 CNS = test system: SF-295 CNS
SF-539 CNS = test system: SF-539 CNS
SK-MEL-2 melanoma = test system: SK-MEL-2 melanoma
SK-MEL-28 melanoma = test system: SK-MEL-28 melanoma
SK-MEL-5 melanoma = test system: SK-MEL-5 melanoma
SK-OV-3 ovarian = test system: SK-OV-3 ovarian
SN12C renal = test system: SN12C renal
SNB-19 CNS = test system: SNB-19 CNS
SNB-75 CNS = test system: SNB-75 CNS
SR leukemia = test system: SR leukemia
SW-620 colon = test system: SW-620 colon
T-47D breast = test system: T-47D breast
TK-10 renal = test system: TK-10 renal
U251 CNS = test system: U251 CNS
UACC-257 melanoma = test system: UACC-257 melanoma
UACC-62 melanoma = test system: UACC-62 melanoma
UO-31 renal = test system: UO-31 renal

Measured: TGI

COC(=O)Cc1ccc(Oc2nc3ccccc3nc2-c2cccs2)cc1
99.8 µM: NCI-H226 lung
48.5 µM: RXF 393 renal
63.3 µM: HOP-92 NSCLC
24.7 µM: SNB-75 CNS
92.2 µM: SK-OV-3 ovarian
> 100 µM: all other assays above
